The term IC50 denotes the midpoint of a concentration-inhibition curve.

Structures are written as SMILES.

One assay concerns A549. Nature of the assay: Antiproliferative activity against human A549 cells assessed as cell growth by MTT assay. Format: functional, cell-based. Background: Formazan colour is commonly taken as a measure of viable cells.
The test system of the next assay is HepG2. Nature of the assay: Antiproliferative activity against human HepG2 cells assessed as cell growth by MTT assay. The class given is functional, cell-based.
In assay [1] the target is Epidermal growth factor receptor (Homo sapiens, UniProt P00533). Nature of the assay: Inhibition of recombinant EGFR (unknown origin) assessed as inhibition of autophosphorylation after 1 hr by DELFIA/Time-resolved fluorometry.
Epidermal growth factor receptor, sequence (P00533 whole entry): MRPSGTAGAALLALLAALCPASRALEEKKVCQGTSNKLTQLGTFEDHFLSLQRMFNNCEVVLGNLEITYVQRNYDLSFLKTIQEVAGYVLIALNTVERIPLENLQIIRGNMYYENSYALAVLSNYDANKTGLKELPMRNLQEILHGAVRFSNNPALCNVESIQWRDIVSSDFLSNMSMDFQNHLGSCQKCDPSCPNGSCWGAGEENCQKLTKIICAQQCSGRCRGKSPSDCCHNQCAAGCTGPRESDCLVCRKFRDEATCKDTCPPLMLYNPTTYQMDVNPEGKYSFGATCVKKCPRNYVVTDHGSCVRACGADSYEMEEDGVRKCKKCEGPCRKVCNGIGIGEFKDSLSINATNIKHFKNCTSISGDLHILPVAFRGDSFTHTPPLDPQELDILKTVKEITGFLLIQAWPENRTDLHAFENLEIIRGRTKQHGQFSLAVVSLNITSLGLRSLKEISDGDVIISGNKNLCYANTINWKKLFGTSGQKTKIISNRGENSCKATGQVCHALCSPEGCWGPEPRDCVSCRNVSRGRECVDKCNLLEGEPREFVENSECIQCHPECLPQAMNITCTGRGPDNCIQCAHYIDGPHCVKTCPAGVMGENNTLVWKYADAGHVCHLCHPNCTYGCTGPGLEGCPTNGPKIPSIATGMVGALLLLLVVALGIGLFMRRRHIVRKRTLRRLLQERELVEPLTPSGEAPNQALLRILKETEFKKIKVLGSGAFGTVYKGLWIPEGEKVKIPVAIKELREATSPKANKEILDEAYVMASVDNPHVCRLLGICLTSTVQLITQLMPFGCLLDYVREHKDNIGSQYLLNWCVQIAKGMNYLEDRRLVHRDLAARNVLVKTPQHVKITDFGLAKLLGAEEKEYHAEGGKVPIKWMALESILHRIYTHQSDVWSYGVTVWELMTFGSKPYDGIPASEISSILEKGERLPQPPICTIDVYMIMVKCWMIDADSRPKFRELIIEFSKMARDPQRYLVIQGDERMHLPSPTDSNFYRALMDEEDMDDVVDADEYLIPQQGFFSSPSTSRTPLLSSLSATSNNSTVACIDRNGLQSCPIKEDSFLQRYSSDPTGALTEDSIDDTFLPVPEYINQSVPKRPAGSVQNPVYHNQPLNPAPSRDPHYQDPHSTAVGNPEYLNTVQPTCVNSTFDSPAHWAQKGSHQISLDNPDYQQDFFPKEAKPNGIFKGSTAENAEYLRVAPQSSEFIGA

Regarding `O=C1N=C(N2CCC[C@H]2C(=O)Nc2ccc3ncnc(Nc4cccc(Cl)c4)c3c2)S/C1=C/c1ccc2ccccc2n1`, the IC50 in the assay with A549 was greater than 50 µM; with HepG2 it was 22.9 µM.
For `COc1ccccc1/C=C1/SC(N2CCC[C@H]2C(=O)Nc2ccc3ncnc(Nc4cccc(Cl)c4)c3c2)=NC1=O`, the IC50 in the assay on A549 was greater than 50 µM; in the assay on HepG2 it was 22.1 µM.
Take `O=C1N=C(N2CCC[C@H]2C(=O)Nc2ccc3ncnc(Nc4cccc(Cl)c4)c3c2)S/C1=C/c1ccccc1[N+](=O)[O-]`: the IC50 in the assay on A549 is greater than 50 µM; in the assay with HepG2, 32.5 µM.
With `O=C1N=C(N2CCC[C@H]2C(=O)Nc2ccc3ncnc(Nc4cccc(Cl)c4)c3c2)S/C1=C/c1ccccc1Br`, the IC50 in the assay on A549 is greater than 50 µM; in the assay with HepG2, 24.3 µM.
Take `O=C1N=C(N2CCC[C@H]2C(=O)Nc2ccc3ncnc(Nc4cccc(Cl)c4)c3c2)S/C1=C/c1ccc(Cl)cc1`: the half-inhibitory concentration (IC50) with A549 was 18.7 µM; with HepG2 it was 10.5 µM; in assay [1], 7.6 µM.
`O=C1N=C(N2CCC[C@H]2C(=O)Nc2ccc3ncnc(Nc4cccc(Cl)c4)c3c2)S/C1=C/c1cccnc1`: the values for the IC50 (in the assay on A549; with HepG2; in assay [1]) were 10.4 µM, 8.5 µM and 9.8 µM, respectively.
With `COc1ccc(/C=C2/SC(N3CCC[C@H]3C(=O)Nc3ccc4ncnc(Nc5cccc(Cl)c5)c4c3)=NC2=O)cc1`, the IC50 came to 31.7 µM with A549 and 19 µM with HepG2.
The matching figures for `O=C1N=C(N2CCC[C@H]2C(=O)Nc2ccc3ncnc(Nc4cccc(Cl)c4)c3c2)S/C1=C/c1cccc(Br)c1`: greater than 50 µM and 21.3 µM.
For the molecule `Cc1cccc(/C=C2/SC(N3CCC[C@H]3C(=O)Nc3ccc4ncnc(Nc5cccc(Cl)c5)c4c3)=NC2=O)n1`, the results for the IC50 (with A549; with HepG2; in assay [1]) were 8.5 µM, 4.5 µM and 6.5 µM, respectively.
Turning to `O=C1N=C(N2CCC[C@H]2C(=O)Nc2ccc3ncnc(Nc4cccc(Cl)c4)c3c2)S/C1=C/c1cccnc1Cl`, the concentration for half-maximal inhibition (IC50) in the assay on A549 was 10.8 µM; in the assay with HepG2 it was 6.4 µM; in assay [1], 7.4 µM.
The matching figures for `O=C1N=C(N2CCC[C@H]2C(=O)Nc2ccc3ncnc(Nc4cccc(Cl)c4)c3c2)S/C1=C/c1cccc(Br)n1`: 3.1 µM, 2.7 µM and 3.1 µM.
Taken in the same sequence, the figures for `O=C1N=C(N2CCC[C@H]2C(=O)Nc2ccc3ncnc(Nc4cccc(Cl)c4)c3c2)S/C1=C/c1ccc(-c2ccccc2)cc1` were 24.2 µM, 15.4 µM and 13.2 µM.
Take `O=C1N=C(N2CCC[C@H]2C(=O)Nc2ccc3ncnc(Nc4cccc(Cl)c4)c3c2)S/C1=C/c1cccc(Cl)c1`: the IC50 was greater than 50 µM with A549 and 27.6 µM in the assay with HepG2.
In the case of `O=C1N=C(N2CCC[C@H]2C(=O)Nc2ccc3ncnc(Nc4cccc(Cl)c4)c3c2)S/C1=C/c1ccccc1Cl`, the IC50 with A549 was greater than 50 µM; with HepG2, 28.1 µM.
On to `O=C1N=C(N2CCC[C@H]2C(=O)Nc2ccc3ncnc(Nc4cccc(Cl)c4)c3c2)S/C1=C/c1ccc(Br)s1`, for which the concentration for half-maximal inhibition (IC50) was greater than 50 µM with A549, greater than 50 µM with HepG2 and 31.4 µM in assay [1].
In the case of `O=C1N=C(N2CCC[C@H]2C(=O)Nc2ccc3ncnc(Nc4cccc(Cl)c4)c3c2)S/C1=C/c1cccs1`, the values for the IC50 (in the assay with A549; in the assay on HepG2; in assay [1]) were 6.1 µM, 4.12 µM and 8.1 µM, respectively.
In the case of `O=C1N=C(N2CCC[C@H]2C(=O)Nc2ccc3ncnc(Nc4cccc(Cl)c4)c3c2)S/C1=C/c1ccccc1F`, the IC50 in the assay with A549 stood at 34.5 µM; in the assay with HepG2, 18.2 µM.

The record behind these values is ChEMBL document CHEMBL3585298, “Combination of 4-anilinoquinazoline and rhodanine as novel epidermal growth factor receptor tyrosine kinase inhibitors” (Bioorg Med Chem, 2015).
